# Laboratory results: PubChem BioAssay AID1996
# Settings: buffer; pH 7.4; 200.0 µM
row,Compound,solubility kinetic
1,COc1ccc(NC(=O)c2ccc(F)c(F)c2)c2ccccc12,< 0.7 µg/mL
2,Cc1cc(C(=O)Cn2c(CO)nc3ccccc32)c(C)n1C,> 44.6 µg/mL
3,Cn1c(/C=N/O)nc2ccccc21,> 26.3 µg/mL
4,Fc1ccccc1CN1CCCC(NC2CCC2)C1 (centres undefined),36.9 µg/mL
5,OC[C@H]1O[C@@H](n2cnc3c(NC4CCCC4)ncnc32)[C@H](O)[C@@H]1O,> 50.3 µg/mL
6,COc1ccc(Cl)cc1NC(=O)/C=C/C(=O)O,> 38.3 µg/mL
7,COc1ccc(C(=O)O)cc1S(N)(=O)=O,> 34.7 µg/mL
8,CCOc1ccc(CNc2ccc3c(c2)ncn3C(C)(C)C)cc1,46.3 µg/mL
9,Cc1ccc(O)c(-c2cc(-c3ccc(F)cc3)no2)c1,< 0.6 µg/mL
10,COc1ccccc1CNC(=O)COC(=O)c1cc(C)oc1C,4.3 µg/mL
11,Cc1ccc(C)c(S(=O)(=O)N(C)Cc2cccs2)c1,9.9 µg/mL
12,Cc1cc(NC(=O)c2cc([N+](=O)[O-])cc([N+](=O)[O-])c2C)no1,38.9 µg/mL
13,COc1ccc(S(=O)(=O)N(Cc2ccccc2)c2ccccc2C(=O)O)cc1,53.7 µg/mL
14,CC(NC(=O)CN(C)CC(=O)Nc1cccc(F)c1)c1ccccc1 (centres undefined),> 51.5 µg/mL
15,S=C(NCCCc1ccccc1)Nc1ccccc1,31.9 µg/mL
16,O=[N+]([O-])c1ccc2c(c1)C(c1ccccc1)=NCCN2,16.8 µg/mL
17,Cc1cc(F)ccc1NC(=O)c1cccnc1,> 34.5 µg/mL
18,O=C(Nc1ccccc1)/C(=C1\CCCN1)[N+](=O)[O-],29.6 µg/mL
19,Cc1cc(C)c2c(CC(=O)N3CCCC3)coc2c1,> 38.6 µg/mL
20,COc1ccc(C=NOCC(=O)OCC(=O)Nc2ccc(OC)cc2)cc1,16.1 µg/mL

row,Compound,solubility kinetic
1,Cc1ccccc1SCC(=O)NCCCn1ccnc1,42.9 µg/mL
2,Cc1cc(NC(=O)c2c(C)noc2C)no1,> 33.2 µg/mL
3,CCN(CC(=O)N1CCOCC1)S(=O)(=O)c1ccccc1,> 46.9 µg/mL
4,CC(=O)Nc1ccc(NC(=O)c2ccc(COc3ccccc3)cc2)cc1,0.6 µg/mL
5,COC(=O)c1ccc(S(=O)(=O)c2ccc(Cl)cc2)c(N)c1,1.2 µg/mL
6,CCC(C)[C@H](NC(=O)Nc1ccccc1F)C(=O)O (some centres undefined),> 40.2 µg/mL
7,Cn1c(SCC(=O)NC2CCCC2)nnc1-c1ccccn1,> 47.6 µg/mL
8,CCCC(=O)NC(=S)Nc1cc(-c2nc3ncccc3o2)ccc1C,0.5 µg/mL
9,CC1CC(C)CN(C(=O)COC(=O)COc2ccc(C#N)cc2)C1 (centres undefined),43.5 µg/mL
10,CCC(CC)C(=O)Nc1cccc(C(=O)NC(C)(C)C)c1,> 43.6 µg/mL
11,O=C(NCCOc1ccccc1F)C1CC(=O)N(Cc2ccccc2)C1 (centres undefined),> 53.5 µg/mL
12,NS(=O)(=O)c1ccc(CNC(=O)c2ccc(NS(=O)(=O)c3cccs3)cc2)cc1,> 67.7 µg/mL
13,O=C(CN1C(=O)c2ccccc2S1(=O)=O)c1ccc(F)cc1,9.7 µg/mL
14,COc1ccc(C(=O)NCCN2CCOCC2)c(OC)c1,> 44.2 µg/mL
15,COc1ccc(C(=O)O/N=C2\CCS(=O)(=O)c3sccc32)cc1,< 0.8 µg/mL
16,CCC(=O)N(CCC(c1ccco1)C(C)C)Cc1ccccc1 (centres undefined),23.7 µg/mL
17,C=CCc1cccc2cc(C(=O)N3CCOCC3)c(=O)oc12,42.8 µg/mL
18,CCCCn1c(N)c(N(CCOC)C(=O)c2ccc3c(c2)C(=O)N(c2ccccc2Cl)C3=O)c(=O)[nH]c1=O,> 81 µg/mL
19,Cn1cc(C(=O)OCC(=O)N2CCCCC2)c2ccccc21,> 45.1 µg/mL
20,CS(=O)(=O)N(CC(=O)Nc1ccc(Br)cc1F)C1CCCCC1,> 61.1 µg/mL

row,Compound,solubility kinetic
1,CN1CCN(c2c(F)cc3c(=O)c(C(=O)[O-])cn4c3c2OCN4C)CC1,> 54.2 µg/mL
2,O=C1NC(=Nc2cccnc2)S/C1=C/c1ccc(F)cc1,0.7 µg/mL
3,O=S(=O)(c1cccc2nonc12)N1CCCCCC1,15.7 µg/mL
4,CC(NC(=O)CN1CCN(c2ccccc2F)CC1)c1ccccc1 (centres undefined),46.3 µg/mL
5,O=C(Nc1ccccc1O)c1ccc(C(=O)c2ccccc2)o1,< 0.7 µg/mL
6,Cc1cccc(NC(=O)C(=O)NCCCN2CCOCC2)c1,41.9 µg/mL
7,COc1cccc(NC(=O)C2CCN(c3cnccn3)CC2)c1,> 46.9 µg/mL
8,CC(=O)c1ccc(S(=O)(=O)N2CCCc3ccccc32)cc1,24.5 µg/mL
9,O=C(NCCCN1CCOCC1)c1ccc(Cl)cc1Cl,> 47.6 µg/mL
10,O=C1ON=C(c2ccccc2)/C1=C/c1ccccc1,34.7 µg/mL
11,Cc1cc(C)c(S(=O)(=O)Nc2cnc3ccccc3c2)c(C)c1,19.2 µg/mL
12,COCC[N+]1(C)CCCCC1.[I-],> 42.8 µg/mL
13,O/N=C/c1nc2cc(Cl)ccc2o1,> 29.5 µg/mL
14,Cc1ccc2nc(-c3cccnc3)c(Nc3ccccc3C)n2c1,2.2 µg/mL
15,COc1ccccc1NC(=O)CNC(=O)CC12CC3CC(CC(C3)C1)C2,43.1 µg/mL
16,Cc1ccc2[nH]c(C(=O)O)c(NC(=O)[C@@H]3C[C@@H]3c3ccccc3)c2c1,> 50.2 µg/mL
17,CC(O)CNC(=O)Cc1cc(=O)[nH]c(=O)[nH]1 (centres undefined),> 34.1 µg/mL
18,O=C(NCc1ccccc1)c1c(O)c2ccccc2[nH]c1=O,< 0.3 µg/mL
19,COc1ccc2nc(C)cc(Nc3cccc(C(=O)O)c3)c2c1,3.3 µg/mL
